Laboratory results: ChEMBL document CHEMBL1201862, “PubChem BioAssay data set” (2004)
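Results reflect a 48-hour exposure of cells in 96-well plates to compound at five concentrations. GI50 marks 50% less growth.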 Calls of active or inactive are those of the source. Cut-off read from the data, not from the text of the source: active = GI50 up to about 1.1 µM and inactive = higher.

What was measured:
Test in all cases: NCI anticancer screen, dose series, 48 h
SN12C = tested on: SN12C
NCI-H23 = tested on: NCI-H23
OVCAR-4 = tested on: OVCAR-4
SF-268 = tested on: SF-268
UO-31 = tested on: UO-31
SW-620 = tested on: SW-620
ACHN = tested on: ACHN
PC-3 = tested on: PC-3
LOX IMVI = tested on: LOX IMVI
SF-295 = tested on: SF-295
MOLT-4 = tested on: MOLT-4
K562 = tested on: K562
MDA-N = tested on: MDA-N
SK-MEL-2 = tested on: SK-MEL-2
M14 = tested on: M14
HCT-15 = tested on: HCT-15
TK-10 = tested on: TK-10
SNB-75 = tested on: SNB-75
CAKI-1 = tested on: CAKI-1

Row | SMILES | GI50 (SN12C) | GI50 (NCI-H23) | GI50 (OVCAR-4) | GI50 (SF-268) | GI50 (UO-31) | GI50 (SW-620) | GI50 (ACHN) | GI50 (PC-3) | GI50 (LOX IMVI) | GI50 (SF-295) | GI50 (MOLT-4) | GI50 (K562) | GI50 (MDA-N) | GI50 (SK-MEL-2) | GI50 (M14) | GI50 (HCT-15) [µM] | GI50 (TK-10) | GI50 (SNB-75) | GI50 (CAKI-1)
1 | CC1(C)CCCCC1/C=C/C(CC(O)(C(F)(F)F)C(F)(F)F)=N\Nc1ccc([N+](=O)[O-])cc1[N+](=O)[O-] (stereo unspecified) | 2.13 µM (inactive) | 0.29 µM (active) | 1.35 µM (inactive) | 0.527 µM (active) | 0.706 µM (active) | 1.86 µM (inactive) | 0.48 µM (active) | 0.333 µM (active) | 1.78 µM (inactive) | 2.42 µM (inactive) | 0.807 µM (active) | 0.368 µM (active) | 2.84 µM (inactive) | 3.18 µM (inactive) | 4.33 µM (inactive) | 1.32 | 0.546 µM (active) | 1.31 µM (inactive) | –
2 | CSC1=NC(C(N)=O)C(N)N1C (stereo unspecified) | > 100 µM (inactive) | > 100 µM (inactive) | > 100 µM (inactive) | > 100 µM (inactive) | > 100 µM (inactive) | > 100 µM (inactive) | > 100 µM (inactive) | > 100 µM (inactive) | > 100 µM (inactive) | > 100 µM (inactive) | > 100 µM (inactive) | > 100 µM (inactive) | > 100 µM (inactive) | > 100 µM (inactive) | > 100 µM (inactive) | > 100 | > 100 µM (inactive) | – | > 100 µM (inactive)
3 | Cc1c(CN2CCN(C)CC2)c(CN2CCN(C)CC2)c(C)n1-c1ccc(Cl)cc1 | > 100 µM (inactive) | 54.2 µM (inactive) | 79.1 µM (inactive) | 44.4 µM (inactive) | 26.9 µM (inactive) | 54.2 µM (inactive) | 96.8 µM (inactive) | 29.4 µM (inactive) | – | 21.2 µM (inactive) | 30.3 µM (inactive) | 23.4 µM (inactive) | 21 µM (inactive) | 21.3 µM (inactive) | 14.6 µM (inactive) | 47 | 17.5 µM (inactive) | 25.9 µM (inactive) | 25.1 µM (inactive)
4 | CC(=O)O[C@H]1CCC2[C@@H]3CCC4NC(=O)C(C#N)C[C@]4(C)C3CC[C@@]21C (stereo partly specified) | > 10 µM (inactive) | > 10 µM (inactive) | > 10 µM (inactive) | > 10 µM (inactive) | > 10 µM (inactive) | > 10 µM (inactive) | > 10 µM (inactive) | > 10 µM (inactive) | > 10 µM (inactive) | > 10 µM (inactive) | > 10 µM (inactive) | > 10 µM (inactive) | > 10 µM (inactive) | > 10 µM (inactive) | > 10 µM (inactive) | > 10 | > 10 µM (inactive) | – | > 10 µM (inactive)
5 | O=C(/C=C/c1c[nH]c2ccccc12)c1ccccc1O | 13.8 µM (inactive) | – | 10.7 µM (inactive) | 16.6 µM (inactive) | 2.82 µM (inactive) | 18.5 µM (inactive) | 12.6 µM (inactive) | 4.03 µM (inactive) | 5.08 µM (inactive) | 10.4 µM (inactive) | 7.41 µM (inactive) | 5.32 µM (inactive) | 5.5 µM (inactive) | 3.55 µM (inactive) | 14 µM (inactive) | 9.89 | 18.3 µM (inactive) | 11.6 µM (inactive) | –
6 | CC(C)SC(C)(NC(=O)C1C(C)(C)CCC1(C)C)C(=O)O (stereo unspecified) | > 100 µM (inactive) | > 100 µM (inactive) | – | > 100 µM (inactive) | > 100 µM (inactive) | > 100 µM (inactive) | > 100 µM (inactive) | > 100 µM (inactive) | > 100 µM (inactive) | – | > 100 µM (inactive) | > 100 µM (inactive) | > 100 µM (inactive) | > 100 µM (inactive) | > 100 µM (inactive) | > 100 | > 100 µM (inactive) | > 100 µM (inactive) | –
7 | Cc1ccc(O)c(C2=CC(c3cccc(Cl)c3)SC(=N)N2)c1 (stereo unspecified) | 16.9 µM (inactive) | 26.6 µM (inactive) | 1.77 µM (inactive) | 32.2 µM (inactive) | 27.4 µM (inactive) | 24.4 µM (inactive) | 24.2 µM (inactive) | 16.6 µM (inactive) | 18.6 µM (inactive) | 17.8 µM (inactive) | 19.1 µM (inactive) | 19.4 µM (inactive) | 18.8 µM (inactive) | 18.2 µM (inactive) | 26 µM (inactive) | 18.9 | 22.4 µM (inactive) | – | 28.2 µM (inactive)
8 | Cc1cn(C2OC(CO[Si](C)(C)C(C)(C)C)C(N(C)O[Si](C)(C)C(C)(C)C)C2[Se]c2ccccc2)c(=O)[nH]c1=O (stereo unspecified) | 5.65 µM (inactive) | 4.6 µM (inactive) | 2.87 µM (inactive) | 2.75 µM (inactive) | 3.23 µM (inactive) | 3.48 µM (inactive) | 3.92 µM (inactive) | 3.85 µM (inactive) | 2.94 µM (inactive) | 4.15 µM (inactive) | 3.72 µM (inactive) | 7.59 µM (inactive) | 8.93 µM (inactive) | 7.6 µM (inactive) | 8.3 µM (inactive) | 4.59 | 5.24 µM (inactive) | 4.79 µM (inactive) | –
